{"source": "paper PMC2605521", "about": "(Journal of medicinal chemistry, 2008)", "key": {"[1]": {"details": "cited from earlier work"}, "[2]": {"biological_target": "T1, μ-receptors (Homo sapiens, UniProt P35372)", "T1 sequence (P35372 whole entry, species assumed)": "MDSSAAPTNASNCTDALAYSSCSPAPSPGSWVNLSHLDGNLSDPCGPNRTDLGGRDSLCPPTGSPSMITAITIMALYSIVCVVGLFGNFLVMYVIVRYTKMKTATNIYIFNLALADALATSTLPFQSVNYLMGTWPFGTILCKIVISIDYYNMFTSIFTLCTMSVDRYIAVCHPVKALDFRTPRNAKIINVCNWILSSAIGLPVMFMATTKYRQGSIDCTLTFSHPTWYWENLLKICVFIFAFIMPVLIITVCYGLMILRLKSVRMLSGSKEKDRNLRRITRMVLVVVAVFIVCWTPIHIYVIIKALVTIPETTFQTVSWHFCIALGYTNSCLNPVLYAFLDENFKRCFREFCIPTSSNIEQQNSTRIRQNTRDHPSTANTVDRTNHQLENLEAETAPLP", "test": "biochemical", "assay_type": "biochemical"}, "[3]": {"biological_target": "δ receptors (Homo sapiens, UniProt P41143)", "sequence (P41143 whole entry)": "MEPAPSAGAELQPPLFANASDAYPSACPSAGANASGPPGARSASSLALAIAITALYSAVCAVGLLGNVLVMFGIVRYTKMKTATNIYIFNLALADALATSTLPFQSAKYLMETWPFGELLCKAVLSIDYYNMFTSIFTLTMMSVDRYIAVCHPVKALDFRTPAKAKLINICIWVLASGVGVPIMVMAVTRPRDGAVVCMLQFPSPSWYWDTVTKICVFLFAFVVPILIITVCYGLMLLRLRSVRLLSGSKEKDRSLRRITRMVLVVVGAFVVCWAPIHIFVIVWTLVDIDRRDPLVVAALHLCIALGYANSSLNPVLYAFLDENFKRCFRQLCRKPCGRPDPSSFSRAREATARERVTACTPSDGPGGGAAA", "test": "[35S]GTP-γ-S functional assay, δ-antagonism", "assay_type": "biochemical"}, "[4]": {"biological_target": "κ receptors (Homo sapiens, UniProt P41145)", "sequence (P41145 whole entry)": "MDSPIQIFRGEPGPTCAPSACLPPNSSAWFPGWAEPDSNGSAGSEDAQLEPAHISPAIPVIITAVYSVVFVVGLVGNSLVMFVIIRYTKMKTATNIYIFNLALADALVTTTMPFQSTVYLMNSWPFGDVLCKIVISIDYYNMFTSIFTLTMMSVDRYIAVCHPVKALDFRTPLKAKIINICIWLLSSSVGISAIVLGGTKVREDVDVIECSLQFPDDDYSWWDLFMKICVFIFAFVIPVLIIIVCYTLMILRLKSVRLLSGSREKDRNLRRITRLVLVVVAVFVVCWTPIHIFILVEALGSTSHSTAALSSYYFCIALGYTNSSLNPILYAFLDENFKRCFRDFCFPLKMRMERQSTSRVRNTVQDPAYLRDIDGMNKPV", "test": "[35S]GTP-γ-S functional assay, κ-antagonism", "assay_type": "biochemical", "details": "for κ-antagonist activity in the functional assay (in words): [35S]GTPγS assay"}, "[5]": {"biological_target": "T2, μ-opioid receptor (Homo sapiens, UniProt P35372)", "T2 sequence (P35372 whole entry, species assumed)": "as the sequence (P35372 whole entry, species assumed) above", "test": "[125I]Ioxy binding, CHO cells expressing μ-opioid receptor", "details": "for affinity for μ-receptors (in words): compared with the N-methyl analogues 46 and 47"}, "[6]": {"biological_target": "T2, μ-opioid receptor", "details": "read-out: Ki at μ-receptors; earlier work; cited from earlier work"}, "[7]": {"biological_target": "T1, μ-receptors", "details": "[35S]GTPγS assay; cited from earlier work"}, "[8]": {"biological_target": "δ-opioid receptor (Homo sapiens, UniProt P41143)", "sequence (P41143 whole entry)": "as the sequence (P41143 whole entry) above", "test": "[125I]Ioxy binding, CHO cells expressing δ-opioid receptor"}}, "note": "“Also recorded” adds a separate entry of the source. Read-outs that look alike come from different tables or passages of the source."}
{"smiles": "Oc1cccc2c1O[C@H]1[C@@H]3CCC[C@]21CCN3CCc1ccccc1", "note": "(single isomer, unassigned) [(−)-N-phenethyl para-e isomer]", "values": [{"measurement": "antinociceptive activity (in words)", "setting": "[1]", "result": "morphine-like antinociceptive"}]}
{"smiles": "Oc1ccc2c(c1)[C@@]13CCN(CCc4ccccc4)[C@@H](CC[C@H]1O2)C3", "note": "(racemic) [Compound 16, (4R*,6aS*,11bR*)-2,3,4,5,6,6a-Hexahydro-3-phenethyl-1H-4,11b-methanobenzofuro[3,2-d]azocine-10-ol]", "values": [{"measurement": "Kb", "setting": "[2]", "result": "260 ± 79", "unit": "nM"}, {"measurement": "Kb", "setting": "[3]", "result": "17000 ± 4200", "unit": "nM"}, {"measurement": "Kb", "setting": "[4]", "result": "19 ± 5.2", "unit": "nM"}, {"measurement": "κ-antagonist activity in the functional assay (in words)", "setting": "[4]", "result": "moderately active κ-antagonists; also recorded: moderately potent κ-receptor antagonists"}]}
{"smiles": "CN1C[C@@H]2Oc3c(O)cccc3[C@@]23CCC[C@@H]1C3", "note": "(racemic) [Compound 46, (3R*,6aS*,11aR*)-1,3,4,5,6,11a-Hexahydro-2-methyl-2H-3,6a-methanobenzofuro[2,3-c]azocin-10-ol]", "values": [{"measurement": "Ki", "setting": "[5]", "result": "8000 ± 406", "unit": "nM"}]}
{"smiles": "Oc1cccc2c1O[C@H]1CN(CCc3ccccc3)[C@@H]3CCC[C@]21C3", "note": "(racemic) [Compound 51, (3R*,6aS*,11aR*)-1,3,4,5,6,11a-Hexahydro-2-phenethyl-2H-3,6a-methanobenzofuro [2,3-c]azocin-10-ol]", "values": [{"measurement": "affinity for μ-receptors (in words)", "setting": "[5]", "result": "only slight affinity"}]}
{"smiles": "Oc1ccc2c(c1)[C@]13CCC[C@H](C1)N(CCc1ccccc1)C[C@@H]3O2", "note": "(relative stereo) [Compound 52]", "values": [{"measurement": "affinity for μ-receptors (in words)", "setting": "[5]", "result": "only slight affinity"}]}
{"smiles": "Oc1cccc2c1O[C@@H]1CC[C@H]3C[C@@]21CCN3CCc1ccccc1", "note": "(racemic) [Compound 24, (4R*,6aS*,11bR*)-2,3,4,5,6,6a-Hexahydro-3-phenethyl-1H-4,11b-methanobenzofuro[3,2-d]azocine-8-ol]", "values": [{"measurement": "Kb", "setting": "[2]", "result": "77 ± 13", "unit": "nM"}, {"measurement": "μ-antagonist activity in the functional assay (in words)", "setting": "[2]", "result": "weak μ-antagonist activity"}, {"measurement": "Kb", "setting": "[3]", "result": "8000 ± 1500", "unit": "nM"}, {"measurement": "Kb", "setting": "[4]", "result": "21 ± 3.4", "unit": "nM"}, {"measurement": "κ-antagonist activity in the functional assay (in words)", "setting": "[4]", "result": "moderately active κ-antagonists; also recorded: moderately potent κ-receptor antagonists"}]}
{"smiles": "CN1C[C@@H]2Oc3ccc(O)cc3[C@@]23CCC[C@@H]1C3", "note": "(racemic) [Compound 47, (3R*,6aS*,11aR*)-1,3,4,5,6,11a-Hexahydro-2-methyl-2H-3,6a-methanobenzofuro [2,3-c]azocin-8-ol]", "values": [{"measurement": "Ki", "setting": "[5]", "result": "2930 ± 203", "unit": "nM"}]}
{"smiles": "Oc1cccc2c1O[C@H]1[C@H]3CCC[C@@]21CCN3CCc1ccccc1", "note": "(single isomer, unassigned) [(−)-N-phenethyl ortho-f isomer]", "values": [{"measurement": "Ki", "setting": "[6]", "result": 7, "unit": "nM"}, {"measurement": "potency as μ-opioid antagonist (in words)", "setting": "[7]", "result": "more potent than naloxone"}]}
{"smiles": "CN1CC[C@@]23C[C@@H]1CC[C@H]2Oc1c(O)cccc13", "note": "(racemic) [Compound 20, (4R*,6aS*,11bR*)-2,3,4,5,6,6a-Hexahydro-3-methyl-1H-4,11b-methanobenzofuro[3,2-d]azocine-8-ol]", "values": [{"measurement": "Ki", "setting": "[8]", "result": "> 10000", "unit": "nM"}]}
